Active and inactive are the calls of the source. The rule behind the calls is not given here.
Test system: CCRIS mutagenicity, Ames/micronucleus/aberration tests
Test: CCRIS mutagenicity studies
[1] = Test System: AMES SALMONELLA TYPHIMURIUM, Strain/Indicator: TA1535, Metabolic Activation: NONE, Method: STANDARD PLATE
[2] = Test System: AMES SALMONELLA TYPHIMURIUM, Strain/Indicator: TA1537, Metabolic Activation: NONE, Method: STANDARD PLATE
[3] = Test System: AMES SALMONELLA TYPHIMURIUM, Strain/Indicator: TA98, Metabolic Activation: NONE, Method: STANDARD PLATE
[4] = Test System: AMES SALMONELLA TYPHIMURIUM, Strain/Indicator: TA100, Metabolic Activation: NONE, Method: STANDARD PLATE

c1cscn1 was tested, and the mutagenic call (Test System: AMES SALMONELLA TYPHIMURIUM, Strain/Indicator: TA98, Metabolic Activation: HAMSTER, LIVER, S-9, AROCLOR 1254, Method: STANDARD PLATE) was “inactive; negative”, the mutagenic call (Test System: AMES SALMONELLA TYPHIMURIUM, Strain/Indicator: TA98, Metabolic Activation: RAT, LIVER, S-9, AROCLOR 1254, Method: STANDARD PLATE) was “inactive; negative” and the mutagenic call (Test System: AMES SALMONELLA TYPHIMURIUM, Strain/Indicator: TA100, Metabolic Activation: HAMSTER, LIVER, S-9, AROCLOR 1254, Method: STANDARD PLATE) was “inactive; negative”. The mutagenic call (Test System: AMES SALMONELLA TYPHIMURIUM, Strain/Indicator: TA1535, Metabolic Activation: HAMSTER, LIVER, S-9, AROCLOR 1254, Method: STANDARD PLATE) was “inactive; negative”, the mutagenic call [1] was “inactive; negative” and the mutagenic call (Test System: AMES SALMONELLA TYPHIMURIUM, Strain/Indicator: TA1535, Metabolic Activation: RAT, LIVER, S-9, AROCLOR 1254, Method: STANDARD PLATE) was “inactive; negative”. For the same molecule, the mutagenic call (Test System: AMES SALMONELLA TYPHIMURIUM, Strain/Indicator: TA1537, Metabolic Activation: HAMSTER, LIVER, S-9, AROCLOR 1254, Method: STANDARD PLATE) was “inactive; negative”, the mutagenic call [2] was “inactive; negative” and the mutagenic call (Test System: AMES SALMONELLA TYPHIMURIUM, Strain/Indicator: TA1537, Metabolic Activation: RAT, LIVER, S-9, AROCLOR 1254, Method: STANDARD PLATE) was “inactive; negative”. For the same molecule, the mutagenic call (Test System: AMES SALMONELLA TYPHIMURIUM, Strain/Indicator: TA1538, Metabolic Activation: HAMSTER, LIVER, S-9, AROCLOR 1254, Method: STANDARD PLATE) was “inactive; negative”, the mutagenic call (Test System: AMES SALMONELLA TYPHIMURIUM, Strain/Indicator: TA1538, Metabolic Activation: NONE, Method: STANDARD PLATE) was “inactive; negative” and the mutagenic call (Test System: AMES SALMONELLA TYPHIMURIUM, Strain/Indicator: TA1538, Metabolic Activation: RAT, LIVER, S-9, AROCLOR 1254, Method: STANDARD PLATE) was “inactive; negative”. For the same molecule, the mutagenic call (Test System: MOUSE LYMPHOMA, Strain/Indicator: L5178Y (TK+/TK-), Metabolic Activation: NONE, Method: SUSPENSION/PLATE) was “inactive; negative. reevaluation of results: negative” and the mutagenic call (Test System: MOUSE LYMPHOMA, Strain/Indicator: L5178Y (TK+/TK-), Metabolic Activation: RAT, LIVER, S-9, AROCLOR 1254, Method: SUSPENSION/PLATE) was “inactive; negative. reevaluation of results: negative”.

In the case of Cc1ccc2cc3ccc4ccccc4c3cc2c1, the mutagenic call (Test System: AMES SALMONELLA TYPHIMURIUM, Strain/Indicator: TA100, Metabolic Activation: RAT, INTACT HEPATOCYTES, AROCLOR 1254, Method: PREINCUBATION) is reported as “active; positive”, the mutagenic call (Test System: AMES SALMONELLA TYPHIMURIUM, Strain/Indicator: TA100, Metabolic Activation: RAT, NADPH-FORTIFIED HOMOGENIZED HEPATOCYTES, AROCLOR 1254, Method: PREINCUBATION) is reported as “active; positive” and the mutagenic call (Test System: AMES SALMONELLA TYPHIMURIUM, Strain/Indicator: TA100, Metabolic Activation: RAT, SONICATED HEPATOCYTES, AROCLOR 1254, Method: PREINCUBATION) is reported as “active; positive”.

CN(C)CCC(c1ccccc1)c1ccccn1 (stereo unspecified) was tested, and the mutagenic call (Test System: AMES SALMONELLA TYPHIMURIUM, Strain/Indicator: TA98, Metabolic Activation: HAMSTER, LIVER, S-9, AROCLOR 1254 (10%), Method: PREINCUBATION) was “inactive; negative”, the mutagenic call (Test System: AMES SALMONELLA TYPHIMURIUM, Strain/Indicator: TA98, Metabolic Activation: NONE, Method: PREINCUBATION) was “inactive; negative” and the mutagenic call (Test System: AMES SALMONELLA TYPHIMURIUM, Strain/Indicator: TA98, Metabolic Activation: RAT, LIVER, S-9, AROCLOR 1254 (10%), Method: PREINCUBATION) was “inactive; negative”. The mutagenic call (Test System: AMES SALMONELLA TYPHIMURIUM, Strain/Indicator: TA100, Metabolic Activation: HAMSTER, LIVER, S-9, AROCLOR 1254 (10%), Method: PREINCUBATION) was “inactive; negative”, the mutagenic call (Test System: AMES SALMONELLA TYPHIMURIUM, Strain/Indicator: TA100, Metabolic Activation: NONE, Method: PREINCUBATION) was “inactive; negative” and the mutagenic call (Test System: AMES SALMONELLA TYPHIMURIUM, Strain/Indicator: TA100, Metabolic Activation: RAT, LIVER, S-9, AROCLOR 1254 (10%), Method: PREINCUBATION) was “inactive; negative”. The mutagenic call (Test System: AMES SALMONELLA TYPHIMURIUM, Strain/Indicator: TA1535, Metabolic Activation: HAMSTER, LIVER, S-9, AROCLOR 1254 (10%), Method: PREINCUBATION) was “inactive; negative”, the mutagenic call (Test System: AMES SALMONELLA TYPHIMURIUM, Strain/Indicator: TA1535, Metabolic Activation: NONE, Method: PREINCUBATION) was “inactive; negative” and the mutagenic call (Test System: AMES SALMONELLA TYPHIMURIUM, Strain/Indicator: TA1535, Metabolic Activation: RAT, LIVER, S-9, AROCLOR 1254 (10%), Method: PREINCUBATION) was “inactive; negative”. The mutagenic call (Test System: AMES SALMONELLA TYPHIMURIUM, Strain/Indicator: TA1537, Metabolic Activation: HAMSTER, LIVER, S-9, AROCLOR 1254 (10%), Method: PREINCUBATION) was “inactive; negative”, the mutagenic call (Test System: AMES SALMONELLA TYPHIMURIUM, Strain/Indicator: TA1537, Metabolic Activation: NONE, Method: PREINCUBATION) was “inactive; negative” and the mutagenic call (Test System: AMES SALMONELLA TYPHIMURIUM, Strain/Indicator: TA1537, Metabolic Activation: RAT, LIVER, S-9, AROCLOR 1254 (10%), Method: PREINCUBATION) was “inactive; negative”.

With O[C@@H]1C=Cc2c(ccc3c2ccc2ccccc23)[C@H]1O the mutagenic call [3] was “inactive; negative”, the mutagenic call (Test System: AMES SALMONELLA TYPHIMURIUM, Strain/Indicator: TA100, Metabolic Activation: EPITHELIAL CELL-MEDIATED, AROCLOR 1254, Method: PREINCUBATION) was “active; positive” and the mutagenic call (Test System: AMES SALMONELLA TYPHIMURIUM, Strain/Indicator: TA100, Metabolic Activation: EPITHELIAL CELL-MEDIATED, Method: PREINCUBATION) was “inactive; negative”. The mutagenic call (Test System: AMES SALMONELLA TYPHIMURIUM, Strain/Indicator: TA100, Metabolic Activation: KUPFFER CELL-MEDIATED, AROCLOR 1254, Method: PREINCUBATION) was “active; positive”, the mutagenic call (Test System: AMES SALMONELLA TYPHIMURIUM, Strain/Indicator: TA100, Metabolic Activation: KUPFFER CELL-MEDIATED, Method: PREINCUBATION) was “inactive; negative” and the mutagenic call [4] was “inactive; negative”. For the same molecule, the mutagenic call (Test System: AMES SALMONELLA TYPHIMURIUM, Strain/Indicator: TA100, Metabolic Activation: PARENCHYMAL CELL-MEDIATED, AROCLOR 1254, Method: PREINCUBATION) was “active; positive”, the mutagenic call (Test System: AMES SALMONELLA TYPHIMURIUM, Strain/Indicator: TA100, Metabolic Activation: PARENCHYMAL CELL-MEDIATED, NADPH, Method: PREINCUBATION) was “active; positive” and the mutagenic call (Test System: AMES SALMONELLA TYPHIMURIUM, Strain/Indicator: TA100, Metabolic Activation: PARENCHYMAL CELL-MEDIATED, Method: PREINCUBATION) was “inactive; negative”. For the same molecule, the mutagenic call (Test System: AMES SALMONELLA TYPHIMURIUM, Strain/Indicator: TA100, Metabolic Activation: RAT, LIVER, S-9, AROCLOR 1254, Method: STANDARD PLATE) was “active; positive”.

For CO/N=C(\C(=O)N[C@@H]1C(=O)N2C(C(=O)[O-])=C(C[n+]3ccn4ncccc43)CS[C@H]12)c1nsc(N)n1, the mutagenic call [3] was “inactive; negative”, the mutagenic call (Test System: AMES SALMONELLA TYPHIMURIUM, Strain/Indicator: TA98, Metabolic Activation: RAT, LIVER, S-9, SODIUM PHENOBARBITAL AND 5,6-BENZOFLAVONE, Method: STANDARD PLATE) was “inactive; negative” and the mutagenic call [4] was “inactive; negative”. For the same molecule, the mutagenic call (Test System: AMES SALMONELLA TYPHIMURIUM, Strain/Indicator: TA100, Metabolic Activation: RAT, LIVER, S-9, SODIUM PHENOBARBITAL AND 5,6-BENZOFLAVONE, Method: STANDARD PLATE) was “inactive; negative”, the mutagenic call [1] was “inactive; negative” and the mutagenic call (Test System: AMES SALMONELLA TYPHIMURIUM, Strain/Indicator: TA1535, Metabolic Activation: RAT, LIVER, S-9, SODIUM PHENOBARBITAL AND 5,6-BENZOFLAVONE, Method: STANDARD PLATE) was “inactive; negative”. The mutagenic call [2] was “inactive; negative”, the mutagenic call (Test System: AMES SALMONELLA TYPHIMURIUM, Strain/Indicator: TA1537, Metabolic Activation: RAT, LIVER, S-9, SODIUM PHENOBARBITAL AND 5,6-BENZOFLAVONE, Method: STANDARD PLATE) was “inactive; negative” and the mutagenic call (Test System: E. COLI, Strain/Indicator: WP2 UVRA, Metabolic Activation: NONE, Method: STANDARD PLATE) was “inactive; negative”. The mutagenic call (Test System: E. COLI, Strain/Indicator: WP2 UVRA, Metabolic Activation: RAT, LIVER, S-9, SODIUM PHENOBARBITAL AND 5,6-BENZOFLAVONE, Method: STANDARD PLATE) was “inactive; negative”.

In the case of O=C1C=CCO1, the mutagenic call (Test System: AMES SALMONELLA TYPHIMURIUM, Strain/Indicator: TA98, Metabolic Activation: RAT, LIVER, MICROSOMES, PHENOBARBITAL, Method: STANDARD PLATE) is reported as “inactive; negative” and the mutagenic call (Test System: AMES SALMONELLA TYPHIMURIUM, Strain/Indicator: TA100, Metabolic Activation: RAT, LIVER, MICROSOMES, PHENOBARBITAL, Method: STANDARD PLATE) is reported as “inactive; negative”.

Source: PubChem BioAssay AID1259407 (Chemical Carcinogenesis Research Information System (CCRIS), 2018)
